Reference: article PMC6886798, “Expression of myeloid Src-family kinases is associated with poor prognosis in AML and influences Flt3-ITD kinase inhibitor acquired resistance” (PLoS ONE, 2019)

Columns and labels:
Test in all cases: KINOMEscan
Assay type in all cases: binding
Details in all cases: 1.0 µM
FLT3(D835V) = biological target: T1, FLT3(D835V) (Homo sapiens, UniProt P36888, D835V)
T1 construct: purchased Eurofins/DiscoverX KINOMEscan scanMAX
Protocol: (§1) Kinase retention to the immobilized ligand is then measured using quantitative real-time PCR for each kinase-specific DNA barcode.

FGFR3(G697C) = biological target: T2, FGFR3(G697C) (Homo sapiens, UniProt P22607, G697C)
T2 construct: purchased Eurofins/DiscoverX KINOMEscan scanMAX
Protocol: as §1

DYRK1A = biological target: T3, DYRK1A (Homo sapiens, UniProt Q13627)
T3 construct: purchased Eurofins/DiscoverX KINOMEscan scanMAX
Protocol: as §1

CSNK2A2 = biological target: T4, CSNK2A2 (Homo sapiens, UniProt P19784)
T4 construct: purchased Eurofins/DiscoverX KINOMEscan scanMAX
Protocol: as §1

GSK3B = biological target: T5, GSK3B (Homo sapiens, UniProt P49841)
T5 construct: purchased Eurofins/DiscoverX KINOMEscan scanMAX
Protocol: as §1

KIT(V559D,T670I) = biological target: T6, KIT(V559D,T670I) (Homo sapiens, UniProt P10721, T670I/V559D)
T6 construct: purchased Eurofins/DiscoverX KINOMEscan scanMAX
Protocol: as §1

EPHA5 = biological target: T7, EPHA5 (Homo sapiens, UniProt P54756)
T7 construct: purchased Eurofins/DiscoverX KINOMEscan scanMAX
Protocol: as §1

NEK5 = biological target: T8, NEK5 (Homo sapiens, UniProt Q6P3R8)
T8 construct: purchased Eurofins/DiscoverX KINOMEscan scanMAX
Protocol: as §1

ACVR1B = biological target: T9, ACVR1B (Homo sapiens, UniProt P36896)
T9 construct: purchased Eurofins/DiscoverX KINOMEscan scanMAX
Protocol: as §1

PRKR = biological target: T10, PRKR (Homo sapiens, UniProt P19525)
T10 construct: purchased Eurofins/DiscoverX KINOMEscan scanMAX
Protocol: as §1

ERK4 = biological target: T11, ERK4 (Homo sapiens, UniProt P31152)
T11 construct: purchased Eurofins/DiscoverX KINOMEscan scanMAX
Protocol: as §1

MST1R = biological target: T12, MST1R (Homo sapiens, UniProt Q04912)
T12 construct: purchased Eurofins/DiscoverX KINOMEscan scanMAX
Protocol: as §1

ABL2 = biological target: T13, ABL2 (Homo sapiens, UniProt P42684)
T13 construct: purchased Eurofins/DiscoverX KINOMEscan scanMAX
Protocol: as §1

ACVRL1 = biological target: T14, ACVRL1 (Homo sapiens, UniProt P37023)
T14 construct: purchased Eurofins/DiscoverX KINOMEscan scanMAX
Protocol: as §1

[1] = biological target: T15, RSK3(Kin.Dom.1-N-terminal) (Homo sapiens, UniProt Q15349)
T15 construct: RSK3(Kin.Dom.1-N-terminal); purchased Eurofins/DiscoverX KINOMEscan scanMAX
Protocol: as §1

TGFBR2 = biological target: T16, TGFBR2 (Homo sapiens, UniProt P37173)
T16 construct: purchased Eurofins/DiscoverX KINOMEscan scanMAX
Protocol: as §1

[2] = biological target: T17, ABL1(M351T)-phosphorylated (Homo sapiens, UniProt P00519, M351T)
T17 construct: purchased Eurofins/DiscoverX KINOMEscan scanMAX
Protocol: as §1

KIT(A829P) = biological target: T18, KIT(A829P) (Homo sapiens, UniProt P10721, A829P)
T18 construct: purchased Eurofins/DiscoverX KINOMEscan scanMAX
Protocol: as §1

TTK = biological target: T19, TTK (Homo sapiens, UniProt P33981)
T19 construct: DNA tag (qPCR barcode); purchased Eurofins/DiscoverX KINOMEscan scanMAX
Protocol: as §1

MAP4K4 = biological target: T20, MAP4K4 (Homo sapiens, UniProt O95819)
T20 construct: purchased Eurofins/DiscoverX KINOMEscan scanMAX
Protocol: as §1

PIP5K1C = biological target: T21, PIP5K1C (Homo sapiens, UniProt O60331)
T21 construct: purchased Eurofins/DiscoverX KINOMEscan scanMAX
Protocol: as §1

AXL = biological target: T22, AXL (Homo sapiens, UniProt P30530)
T22 construct: purchased Eurofins/DiscoverX KINOMEscan scanMAX
Protocol: as §1

SRMS = biological target: T23, SRMS (Homo sapiens, UniProt Q9H3Y6)
T23 construct: purchased Eurofins/DiscoverX KINOMEscan scanMAX
Protocol: as §1

TNNI3K = biological target: T24, TNNI3K (Homo sapiens, UniProt Q59H18)
T24 construct: purchased Eurofins/DiscoverX KINOMEscan scanMAX
Protocol: as §1

PDGFRA = biological target: T25, PDGFRA (Homo sapiens, UniProt P16234)
T25 construct: purchased Eurofins/DiscoverX KINOMEscan scanMAX
Protocol: as §1

EPHA2 = biological target: T26, EPHA2 (Homo sapiens, UniProt P29317)
T26 construct: purchased Eurofins/DiscoverX KINOMEscan scanMAX
Protocol: as §1

[3] = biological target: T27, ABL1(F317L)-nonphosphorylated (Homo sapiens, UniProt P00519, F317L)
T27 construct: purchased Eurofins/DiscoverX KINOMEscan scanMAX
Protocol: as §1

ANKK1 = biological target: T28, ANKK1 (Homo sapiens, UniProt Q8NFD2)
T28 construct: purchased Eurofins/DiscoverX KINOMEscan scanMAX
Protocol: as §1

FGFR4 = biological target: T29, FGFR4 (Homo sapiens, UniProt P22455)
T29 construct: purchased Eurofins/DiscoverX KINOMEscan scanMAX
Protocol: as §1

FLT4 = biological target: T30, FLT4 (Homo sapiens, UniProt P35916)
T30 construct: purchased Eurofins/DiscoverX KINOMEscan scanMAX
Protocol: as §1

STK16 = biological target: T31, STK16 (Homo sapiens, UniProt O75716)
T31 construct: purchased Eurofins/DiscoverX KINOMEscan scanMAX
Protocol: as §1

ACVR2B = biological target: T32, ACVR2B (Homo sapiens, UniProt Q13705)
T32 construct: purchased Eurofins/DiscoverX KINOMEscan scanMAX
Protocol: as §1

RIPK2 = biological target: T33, RIPK2 (Homo sapiens, UniProt O43353)
T33 construct: purchased Eurofins/DiscoverX KINOMEscan scanMAX
Protocol: as §1

MAP3K4 = biological target: T34, MAP3K4 (Homo sapiens, UniProt Q9Y6R4)
T34 construct: purchased Eurofins/DiscoverX KINOMEscan scanMAX
Protocol: as §1

MLK1 = biological target: T35, MLK1 (Homo sapiens, UniProt P80192)
T35 construct: purchased Eurofins/DiscoverX KINOMEscan scanMAX
Protocol: as §1

CLK3 = biological target: T36, CLK3 (Homo sapiens, UniProt P49761)
T36 construct: purchased Eurofins/DiscoverX KINOMEscan scanMAX
Protocol: as §1

RET(M918T) = biological target: T37, RET(M918T) (Homo sapiens, UniProt P07949, M918T)
T37 construct: purchased Eurofins/DiscoverX KINOMEscan scanMAX
Protocol: as §1

MARK3 = biological target: T38, MARK3 (Homo sapiens, UniProt P27448)
T38 construct: purchased Eurofins/DiscoverX KINOMEscan scanMAX
Protocol: as §1

PIK3CA(E545K) = biological target: T39, PIK3CA(E545K) (Homo sapiens, UniProt P42336, E545K)
T39 construct: purchased Eurofins/DiscoverX KINOMEscan scanMAX
Protocol: as §1

NEK7 = biological target: T40, NEK7 (Homo sapiens, UniProt Q8TDX7)
T40 construct: purchased Eurofins/DiscoverX KINOMEscan scanMAX
Protocol: as §1

VRK2 = biological target: T41, VRK2 (Homo sapiens, UniProt Q86Y07)
T41 construct: DNA tag (qPCR barcode); purchased Eurofins/DiscoverX KINOMEscan scanMAX
Protocol: as §1

T10 sequence (P19525 whole entry): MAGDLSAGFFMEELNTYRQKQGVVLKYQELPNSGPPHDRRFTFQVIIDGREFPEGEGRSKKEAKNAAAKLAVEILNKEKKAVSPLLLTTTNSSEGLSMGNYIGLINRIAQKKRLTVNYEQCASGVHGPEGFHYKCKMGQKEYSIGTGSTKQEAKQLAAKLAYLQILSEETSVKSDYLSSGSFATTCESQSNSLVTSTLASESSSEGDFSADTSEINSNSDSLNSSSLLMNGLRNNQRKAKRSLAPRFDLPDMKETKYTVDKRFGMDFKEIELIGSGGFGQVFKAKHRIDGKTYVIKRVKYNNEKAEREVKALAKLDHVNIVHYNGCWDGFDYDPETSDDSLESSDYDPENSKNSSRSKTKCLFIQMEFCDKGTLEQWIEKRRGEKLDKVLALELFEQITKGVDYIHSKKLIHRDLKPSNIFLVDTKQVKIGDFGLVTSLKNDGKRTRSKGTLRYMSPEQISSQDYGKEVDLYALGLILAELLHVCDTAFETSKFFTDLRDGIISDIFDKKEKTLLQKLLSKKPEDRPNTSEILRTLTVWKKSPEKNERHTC
T11 sequence (P31152 whole entry): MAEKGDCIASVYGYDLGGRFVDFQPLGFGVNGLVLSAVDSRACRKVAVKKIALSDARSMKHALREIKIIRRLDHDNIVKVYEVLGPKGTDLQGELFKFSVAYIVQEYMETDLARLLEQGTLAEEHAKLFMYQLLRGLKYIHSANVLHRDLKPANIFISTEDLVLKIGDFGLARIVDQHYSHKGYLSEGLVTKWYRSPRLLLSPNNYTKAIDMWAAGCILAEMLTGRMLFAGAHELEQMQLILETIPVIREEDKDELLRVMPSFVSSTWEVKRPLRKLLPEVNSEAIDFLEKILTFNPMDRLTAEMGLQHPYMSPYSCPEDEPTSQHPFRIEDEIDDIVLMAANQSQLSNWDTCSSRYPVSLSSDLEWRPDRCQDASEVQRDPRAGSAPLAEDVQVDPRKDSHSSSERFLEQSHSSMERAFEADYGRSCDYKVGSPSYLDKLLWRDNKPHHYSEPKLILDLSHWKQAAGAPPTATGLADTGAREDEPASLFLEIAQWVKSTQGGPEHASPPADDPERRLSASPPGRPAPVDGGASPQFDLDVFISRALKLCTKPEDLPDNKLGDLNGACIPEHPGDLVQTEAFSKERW
T33 sequence (O43353 whole entry): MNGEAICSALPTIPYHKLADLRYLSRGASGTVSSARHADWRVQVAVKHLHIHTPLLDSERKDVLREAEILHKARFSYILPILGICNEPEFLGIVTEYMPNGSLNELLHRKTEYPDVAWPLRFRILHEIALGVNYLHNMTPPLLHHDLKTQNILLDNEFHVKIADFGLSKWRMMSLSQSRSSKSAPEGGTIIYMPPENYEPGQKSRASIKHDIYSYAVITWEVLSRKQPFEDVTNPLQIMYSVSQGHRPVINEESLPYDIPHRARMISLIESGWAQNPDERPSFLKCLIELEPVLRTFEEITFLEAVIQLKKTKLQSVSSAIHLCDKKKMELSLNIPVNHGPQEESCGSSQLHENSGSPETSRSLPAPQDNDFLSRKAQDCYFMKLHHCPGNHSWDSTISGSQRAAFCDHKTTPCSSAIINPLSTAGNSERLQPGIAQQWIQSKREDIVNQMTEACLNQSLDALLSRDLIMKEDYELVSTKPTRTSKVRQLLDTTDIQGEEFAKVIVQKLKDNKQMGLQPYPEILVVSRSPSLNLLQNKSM
T39 sequence (P42336 whole entry E545K): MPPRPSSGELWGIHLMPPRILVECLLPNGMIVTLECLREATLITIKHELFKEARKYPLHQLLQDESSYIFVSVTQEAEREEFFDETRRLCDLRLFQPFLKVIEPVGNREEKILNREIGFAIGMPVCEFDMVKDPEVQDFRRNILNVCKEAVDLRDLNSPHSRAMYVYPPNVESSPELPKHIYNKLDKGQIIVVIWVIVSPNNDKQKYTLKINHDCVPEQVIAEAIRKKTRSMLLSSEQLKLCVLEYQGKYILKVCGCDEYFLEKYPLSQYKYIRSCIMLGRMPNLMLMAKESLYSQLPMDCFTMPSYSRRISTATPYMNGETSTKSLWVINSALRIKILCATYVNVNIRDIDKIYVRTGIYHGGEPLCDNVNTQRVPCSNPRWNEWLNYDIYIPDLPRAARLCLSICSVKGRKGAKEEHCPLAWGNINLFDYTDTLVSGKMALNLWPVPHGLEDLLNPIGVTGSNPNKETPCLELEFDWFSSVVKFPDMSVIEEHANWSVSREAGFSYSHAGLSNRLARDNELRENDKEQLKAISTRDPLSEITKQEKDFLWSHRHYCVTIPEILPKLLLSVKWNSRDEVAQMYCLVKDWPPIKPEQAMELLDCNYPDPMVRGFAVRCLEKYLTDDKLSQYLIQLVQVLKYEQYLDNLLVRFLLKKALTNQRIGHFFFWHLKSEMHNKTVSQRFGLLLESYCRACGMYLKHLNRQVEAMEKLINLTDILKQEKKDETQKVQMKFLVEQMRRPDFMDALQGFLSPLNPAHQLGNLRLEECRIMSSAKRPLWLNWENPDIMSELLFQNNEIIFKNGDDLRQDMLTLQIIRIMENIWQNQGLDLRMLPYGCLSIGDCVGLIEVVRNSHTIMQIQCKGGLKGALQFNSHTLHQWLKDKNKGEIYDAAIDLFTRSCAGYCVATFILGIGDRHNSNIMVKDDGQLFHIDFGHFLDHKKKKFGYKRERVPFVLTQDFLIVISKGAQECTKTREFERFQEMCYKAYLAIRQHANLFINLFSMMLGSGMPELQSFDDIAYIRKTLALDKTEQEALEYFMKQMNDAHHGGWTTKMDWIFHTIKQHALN
T9 sequence (P36896 24-505): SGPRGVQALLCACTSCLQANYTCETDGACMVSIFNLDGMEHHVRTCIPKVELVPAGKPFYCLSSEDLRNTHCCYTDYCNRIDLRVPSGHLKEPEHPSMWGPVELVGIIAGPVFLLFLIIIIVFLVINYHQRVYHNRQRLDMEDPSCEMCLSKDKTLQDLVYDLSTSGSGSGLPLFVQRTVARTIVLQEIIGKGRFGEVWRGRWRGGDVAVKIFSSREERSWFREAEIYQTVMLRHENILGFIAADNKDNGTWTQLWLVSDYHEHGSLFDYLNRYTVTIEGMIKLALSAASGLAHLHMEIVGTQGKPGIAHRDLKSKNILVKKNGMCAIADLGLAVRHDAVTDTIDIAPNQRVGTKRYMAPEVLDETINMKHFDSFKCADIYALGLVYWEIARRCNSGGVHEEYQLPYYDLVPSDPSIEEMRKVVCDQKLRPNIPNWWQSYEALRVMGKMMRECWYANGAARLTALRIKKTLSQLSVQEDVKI
T34 sequence (Q9Y6R4 whole entry): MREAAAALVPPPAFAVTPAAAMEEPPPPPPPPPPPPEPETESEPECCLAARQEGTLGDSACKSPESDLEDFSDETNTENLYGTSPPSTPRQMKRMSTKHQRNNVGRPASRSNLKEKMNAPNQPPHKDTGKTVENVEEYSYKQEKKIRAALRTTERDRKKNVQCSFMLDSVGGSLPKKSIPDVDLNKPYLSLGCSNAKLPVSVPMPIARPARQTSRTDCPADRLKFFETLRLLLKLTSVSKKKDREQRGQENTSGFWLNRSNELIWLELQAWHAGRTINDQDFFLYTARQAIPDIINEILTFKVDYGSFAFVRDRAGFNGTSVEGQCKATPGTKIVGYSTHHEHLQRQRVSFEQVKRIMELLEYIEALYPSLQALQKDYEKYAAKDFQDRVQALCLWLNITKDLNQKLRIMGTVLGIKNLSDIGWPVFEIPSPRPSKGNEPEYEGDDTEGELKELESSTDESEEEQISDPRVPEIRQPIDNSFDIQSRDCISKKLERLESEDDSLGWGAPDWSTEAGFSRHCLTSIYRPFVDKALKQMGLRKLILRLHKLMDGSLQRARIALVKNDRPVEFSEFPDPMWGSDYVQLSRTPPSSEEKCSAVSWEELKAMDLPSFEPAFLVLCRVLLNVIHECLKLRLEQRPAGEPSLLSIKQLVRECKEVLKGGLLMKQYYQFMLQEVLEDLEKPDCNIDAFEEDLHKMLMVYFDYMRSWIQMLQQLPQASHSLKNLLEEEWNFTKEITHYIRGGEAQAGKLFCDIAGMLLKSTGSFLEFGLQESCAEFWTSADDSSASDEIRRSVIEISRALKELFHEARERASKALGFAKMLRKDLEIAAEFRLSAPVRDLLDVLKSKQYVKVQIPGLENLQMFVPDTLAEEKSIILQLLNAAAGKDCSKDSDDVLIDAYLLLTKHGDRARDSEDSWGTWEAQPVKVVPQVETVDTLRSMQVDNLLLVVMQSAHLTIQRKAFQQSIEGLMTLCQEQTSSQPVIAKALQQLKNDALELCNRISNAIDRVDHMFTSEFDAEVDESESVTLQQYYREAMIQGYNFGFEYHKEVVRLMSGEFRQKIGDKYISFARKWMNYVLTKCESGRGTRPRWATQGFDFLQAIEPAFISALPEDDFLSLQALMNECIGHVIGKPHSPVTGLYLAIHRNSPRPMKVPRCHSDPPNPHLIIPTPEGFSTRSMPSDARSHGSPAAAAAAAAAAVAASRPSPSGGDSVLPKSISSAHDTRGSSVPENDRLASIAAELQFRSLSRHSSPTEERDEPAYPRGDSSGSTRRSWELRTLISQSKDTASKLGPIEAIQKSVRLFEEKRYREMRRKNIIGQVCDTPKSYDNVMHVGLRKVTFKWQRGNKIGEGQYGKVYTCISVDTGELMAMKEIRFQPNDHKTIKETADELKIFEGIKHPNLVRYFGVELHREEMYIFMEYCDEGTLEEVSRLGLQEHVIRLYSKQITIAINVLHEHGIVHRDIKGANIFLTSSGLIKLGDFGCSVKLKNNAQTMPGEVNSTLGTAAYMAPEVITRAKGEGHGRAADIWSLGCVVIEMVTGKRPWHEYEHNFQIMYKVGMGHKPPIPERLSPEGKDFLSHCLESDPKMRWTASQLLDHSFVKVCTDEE

CN1CCN(C2CCC(n3cc(-c4ccc(Oc5ccccc5)cc4)c4c(N)ncnc43)CC2)CC1 (centres unmarked) [A-419259]
% Control (FLT3(D835V)): 0.15% | % Control (FGFR3(G697C)): 27% | % Control (DYRK1A): 99% | % Control (CSNK2A2): 66% | % Control (GSK3B): 95% | % Control (KIT(V559D,T670I)): 40% | % Control (EPHA5): 80% | % Control (NEK5): 100% | % Control (ACVR1B): 100% | % Control (PRKR): 100% | % Control (ERK4): 56% | % Control (MST1R): 96% | % Control (ABL2): 4.9% | % Control (ACVRL1): 100% | % Control [1]: 22% | % Control (TGFBR2): 100% | % Control [2]: 1.6% | % Control (KIT(A829P)): 5.9% | % Control (TTK): 3.5% | % Control (MAP4K4): 83% | % Control (PIP5K1C): 89% | % Control (AXL): 6.1% | % Control (SRMS): 0% | % Control (TNNI3K): 91% | % Control (PDGFRA): 1.1% | % Control (EPHA2): 100% | % Control [3]: 4.7% | % Control (ANKK1): 73% | % Control (FGFR4): 62% | % Control (FLT4): 19% | % Control (STK16): 100% | % Control (ACVR2B): 100% | % Control (RIPK2): 3.6% | % Control (MAP3K4): 92% | % Control (MLK1): 88% | % Control (CLK3): 100% | % Control (RET(M918T)): 0.1% | % Control (MARK3): 83% | % Control (PIK3CA(E545K)): 95% | % Control (NEK7): 91% | % Control (VRK2): 39%
